Patent US7910597B2, “Substituted quinazolines” (Shire LLC, priority 2006, dated 2011)
Counter-ions that a name gives are not always drawn. Like-named read-outs stand apart in the source and are kept apart here. Each block holds one molecule with its values, some of them ahead of it.

Key:
[1] = target: human phosphodiesterase III (PDE III); assay: In vitro PDE III inhibition (human enzyme); assay type: biochemical
[2] = system: megakaryocytopoiesis (human cell-line); assay: In vitro anti-megakaryocytic activity in a model of megakaryocytopoiesis (human cell-line); assay type: cell-based
Method: Assessment of the in vitro anti-megakaryocytic activity—and potentially therefore the platelet lowering capability—of the 3-substituted analogues of anagrelide was conducted using a well established model of megakaryocytopoiesis (Cohen-Solal et at, Thromb. Haemost. 1997, 78:37-41 and Cramer et al, Blood, 1997, 89:2336-46). It can be readily seen that with anagrelide the benefit ratio (therapeutic to adverse effects) was comparatively low at 0.024:1 (after accounting for the predominant exposure to the cardioactive metabolite in vivo).

dog heart rate = assay: In vivo cardiovascular effects on dog heart rate
Excerpt: (§1) A comparison of the in vivo cardiovascular effects of anagrelide, its active metabolite and a representative example of an improved analogue shown in the table below:—

[3] = Pharmacokinetics in the conscious dog model; assay type: in vivo; settings: geometric mean ± % CV
Method: A comparison of the pharmacokinetic profile in the dog of anagrelide and a representative 3-substituted analogue is shown below:—
Comparative Pharmacokinetics of Anagrelide, its Resultant Active Metabolite and a Representative 3-Substituted Analogue Follow 1 mg/kg iv in the Conscious Dog Model

[4] = In vitro metabolic stability in dog hepatocytes; assay type: in vitro ADME
Excerpt: (§2) This comparatively longer half-life for 3,3 dimethyl anagrelide observed in the dog was mirrored in an in vitro metabolic stability study in which it was clearly much more metabolically stable than anagrelide (see table below). Hepatic metabolism is known to be the principal mechanism of clearance of anagrelide in both animals and in man.

[5] = In vitro metabolic stability in human hepatocytes; assay type: in vitro ADME
Excerpt: as §2

[6] = Solubility in test media, saturated solutions, HPLC; assay type: physicochemical; settings: ca. 20° C.; for solubility at 20 min: thermodynamic from solid
Method: Solubility studies were carried out on a number of anagrelide derivatives according to the present invention in various test media. The test media were; • a) singly distilled water (pH 5.0)—note no attempt was made to remove dissolved CO2. • b) 50 mM ammonium formate (pH 7.9) • c) 0.1 M hydrochloric acid (pH 0.6)
Calibration plots of HPLC peak area vs. concentration were obtained in MeOH or MeOH/DMSO over the range 1000-1 μg/ml for each substance at a temperature 20-22° C. The HPLC method used a reverse phase C18 column with a water (0.6% formic acid) and acetonitrile gradient. For the solubility studies, saturated solutions were prepared by dissolving in the desired medium with the aid of an ultrasonic bath for 20 minutes and the excess solid removed by centrifugation. The concentration of the substance in the supernatant liquid was determined from the measured peak area.

[7] = system: human phosphodiesterase III (PDE III); settings: background, cited from earlier work; for IC50: read-out: IC50 as PDE III inhibitor
[8] = system: megakaryocytopoiesis (human cell-line); settings: background; cited from earlier work
[9] = cited from earlier work
heart rate = assay: In vivo cardiovascular effects on dog heart rate; settings: in vivo
Excerpt: as §1

[10] = system: erythroid or myelomonocytic differentiation; settings: stimulated by erythropoietin or granulocyte-macrophage colony-stimulating factor; cited from earlier work
[11] = Example 1 table, read-out: IC50 for PDE III inhibition (cardiovascular effects)
[12] = read-out: In vitro IC50 for PDE III inhibition (human enzyme)
[13] = Example 1 table, read-out: IC50 for anti-megakaryocytic (platelet lowering) activity
[14] = read-out: In vitro IC50 for anti-megakaryocytic effects (human cell-line)

SMILES: CC1(C)C(=O)NC2=Nc3ccc(Cl)c(Cl)c3CN21 [3,3 dimethyl anagrelide, 3,3-dimethylanagrelide]
IC50 [1, 11]: 166 nM | IC50 [1, 12]: 164 nM | IC50 [2, 13]: 164 nM | IC50 [2, 14]: 166 nM | In vivo ED20 for effects on dog heart rate (dog heart rate): 2,512 μg/kg | In vivo ED50 for effects on dog heart rate (dog heart rate): 3,557 ug/kg μg/kg | AUC(0-t) ([3]; 1 mg/kg): 1903 ± 47 ng·h/mL | Cmax ([3]; 1 mg/kg): 167 ± 33 ng/mL | T1/2 ([3]; 1 mg/kg): 9.39 h | CL ([3]; after 1 mg/kg iv): 178 ± 45.9 mL/h/kg | Vss ([3]; after 1 mg/kg iv): 1967 ± 24 mL/kg | In vitro "half-life" in dog hepatocytes [4]: No apparent degradation | In vitro "half-life" in human hepatocytes [5]: 22.8 h

SMILES: O=C1[N-]C2=Nc3ccc(Cl)c(Cl)c3CN2C12CC2.[Na+] [3,3,Spiro-Cyclopropyl-anagrelide sodium salt]
Solubility in hydrochloric acid (0.1M, pH 0.6) ([6]; 0.1M HCl, pH 0.6): 28 μg mL^−1 | Solubility in ammonium formate (50 mM, pH 7.9) ([6]; ammonium formate 50 mM, pH 7.9): 1 μg mL^−1 | Solubility in water (pH 5.0) ([6]; singly distilled water, pH 5.0): 542 μg mL^−1

SMILES: Br.CC1(C)C(=O)NC2=Nc3ccc(Cl)c(Cl)c3CN21 [3,3-Dimethylanagrelide hydrobromide]
Solubility in hydrochloric acid (0.1M, pH 0.6) ([6]; 0.1M HCl, pH 0.6): 215 μg mL^−1 | Solubility in ammonium formate (50 mM, pH 7.9) ([6]; ammonium formate 50 mM, pH 7.9): 4 μg mL^−1 | Solubility in water (pH 5.0) ([6]; singly distilled water, pH 5.0): 20 μg mL^−1

SMILES: CC1(C)C(=O)[N-]C2=Nc3ccc(Cl)c(Cl)c3CN21.[Na+] [3,3-Dimethylanagrelide sodium salt]
Solubility in hydrochloric acid (0.1M, pH 0.6) ([6]; 0.1M HCl, pH 0.6): 212 μg mL^−1 | Solubility in ammonium formate (50 mM, pH 7.9) ([6]; ammonium formate 50 mM, pH 7.9): 6 μg mL^−1 | Solubility in water (pH 5.0) ([6]; singly distilled water, pH 5.0): 409 μg mL^−1

SMILES: Br.O=C1NC2=Nc3ccc(Cl)c(Cl)c3CN2C12CC2 [3,3-spiro-Cyclopropyl-anagrelide hydrobromide]
Solubility in hydrochloric acid (0.1M, pH 0.6) ([6]; 0.1M HCl, pH 0.6): 35 μg mL^−1 | Solubility in ammonium formate (50 mM, pH 7.9) ([6]; ammonium formate 50 mM, pH 7.9): 1 μg mL^−1 | Solubility in water (pH 5.0) ([6]; singly distilled water, pH 5.0): 2 μg mL^−1

SMILES: C=c1c(=O)[n-]c2n1Cc1c(ccc(Cl)c1Cl)N=2.[Na+] [3-Methyleneanagrelide Na salt]
Solubility in hydrochloric acid (0.1M, pH 0.6) ([6]; 0.1M HCl, pH 0.6): 189 μg mL^−1 | Solubility in ammonium formate (50 mM, pH 7.9) ([6]; ammonium formate 50 mM, pH 7.9): 39 μg mL^−1 | Solubility in water (pH 5.0) ([6]; singly distilled water, pH 5.0): 1830 μg mL^−1

SMILES: C[C@@H]1C(=O)NC2=Nc3ccc(Cl)c(Cl)c3CN21 [(R)-3-methyl anagrelide]
PDE III inhibitory activity (in words) [1]: significantly reduced PDE III inhibition relative to 3-OH anagrelide | Anti-megakaryocytic activity (in words) [2]: good anti-megakaryocytic activity

SMILES: C[C@H]1C(=O)NC2=Nc3ccc(Cl)c(Cl)c3CN21 [(S)-3-methyl anagrelide]
PDE III inhibitory activity (in words) [1]: significantly reduced PDE III inhibition relative to 3-OH anagrelide | Anti-megakaryocytic activity (in words) [2]: good anti-megakaryocytic activity

SMILES: Cc1[nH]c(=O)c(C#N)cc1-c1ccncc1 [milrinone]
IC50 [7]: 170 to 350 nM

Now from value to molecule, other results behind:

Solubility in hydrochloric acid (0.1M, pH 0.6) ([6]; 0.1M HCl, pH 0.6): 43 μg mL^−1 | Solubility in ammonium formate (50 mM, pH 7.9) ([6]; ammonium formate 50 mM, pH 7.9): 5 μg mL^−1 | Solubility in water (pH 5.0) ([6]; singly distilled water, pH 5.0): 9 μg mL^−1
SMILES: C=c1c(=O)[nH]c2n1Cc1c(ccc(Cl)c1Cl)N=2 [3-Methyleneanagrelide, 3-methyleneanagrelide]

IC50 [1, 12]: 0.7 nM | IC50 [2, 13]: 44 nM | IC50 [2, 14]: 44 nM | AUC(0-t) ([3]; 1 mg/kg): 179 ± 14 ng·h/mL | Cmax ([3]; 1 mg/kg): 60.1 ± 14 ng/mL | T1/2 ([3]; 1 mg/kg): 1.57 ± 24 h
SMILES: O=C1NC2=Nc3ccc(Cl)c(Cl)c3CN2C1O (stereo not shown) [3-hydroxy anagrelide, 3-hydroxyanagrelide]
IC50 [1, 11]: 0.7 nM | In vivo ED20 for effects on dog heart rate (dog heart rate): 7.1 µg/kg | In vivo ED50 for effects on dog heart rate (dog heart rate): 11.72 ug/kg μg/kg | Potency as PDE III inhibitor relative to anagrelide ([7]; more potent than anagrelide): over 40 fold | Inhibition of megakaryocytopoiesis relative to parent drug (in words) [8]: no more potent than the parent drug | In vivo exposure relative to parent drug ([9]; after anagrelide treatment): 2-3 fold | Typical half-life ([9]; background, patients): 2.5 h

IC50 [2, 13]: 547 nM
SMILES: O=C1NC2=Nc3ccc(Cl)c(Cl)c3CN2C12CC2 [3-spirocyclo propyl anagrelide, 3,3,spiro-cyclopropyl-anagrelide]
IC50 [1, 11]: 797 nM

solubility at 20 min ([6]; 50 mM ammonium formate, aqueous buffer, ammonium formate 50 mM, pH 7.9, read-out: Solubility in ammonium formate (50 mM, pH 7.9)): 10 µg/mL | solubility at 20 min ([6]; 0.1 M hydrochloric acid, simulated gastric fluid, 0.1M HCl, pH 0.6, read-out: Solubility in hydrochloric acid (0.1M, pH 0.6)): 169 µg/mL | solubility at 20 min ([6]; singly distilled water, pH 5.0, read-out: Solubility in water (pH 5.0)): 11 µg/mL
SMILES: O=C1CN2Cc3c(ccc(Cl)c3Cl)N=C2N1 [Anagrelide hydrochloride, 6,7-dichloro-1,5-dihydroimidazo[2,1-b]-quinazolin-2(3H)-one hydrochloride monohydrate, reference compound]

IC50 [1, 12]: 29 nM | IC50 ([2]; Homo sapiens, Platelet, Example 1 table, read-out: IC50 for anti-megakaryocytic (platelet lowering) activity): 27 nM | IC50 ([2]; Homo sapiens, read-out: In vitro IC50 for anti-megakaryocytic effects (human cell-line)): 26 nM | clearance ([3]; in vivo, after 1 mg/kg iv): 19.3 mL/min/kg | Vd ([3]; in vivo, after 1 mg/kg iv, read-out: Vss): 1.011 ± 0.0038 L/kg | half-life ([3]; in vivo, intravenous, 1 mg/kg): 82.2 min | AUC(0-t) ([3]; in vivo, intravenous, 1 mg/kg, read-out: AUC(0-t)): 101 ± 15 ng·h/mL | Cmax ([3]; in vivo, intravenous, 1 mg/kg, read-out: Cmax): 48.1 ± 21 ng/mL | half-life [4]: 75 min | half-life [5]: 397 min
SMILES: O=C1CN2Cc3c(ccc(Cl)c3Cl)N=C2N1 [Anagrelide, 6,7-dichloro-1,5-dihydroimidazo[2,1-b]-quinazolin-2(3H)-one hydrochloride monohydrate]
IC50 [1, 11]: 32 nM | In vivo ED20 for effects on dog heart rate (dog heart rate): 376 µg/kg | ED50 (heart rate): 0.986 mg/kg | IC50 [7]: ~29 nM | First pass effect ([9]; background): > 50% | Effect on erythroid or myelomonocytic differentiation (in words) [10]: does not affect erythroid or myelomonocytic differentiation
